{
  "source": "PubChem BioAssay AID1259409",
  "about": "(Chemical Carcinogenesis Research Information System (CCRIS), 2018)",
  "origin": "cited, not measured here",
  "tested_on": "rodent chemically induced tumor inhibition, incidence and multiplicity",
  "assay": "CCRIS tumor inhibitor studies",
  "settings": "Route [Inhibitor]: ORAL, Promoter: NONE USED",
  "data": [
    {"smiles": "CC1=C(/C=C/C(C)=C/C=C/C(C)=C/C(=O)NCCO)C(C)(C)CCC1", "values": [
      {"measurement": "tumour outcome (control, treated, inhibition, significance)", "setting": "Carcinogen: N-(4-(5-NITRO-2-FURYL)-2-THIAZOLYL)FORMAMIDE, 24554-26-5, Dose [Inhibitor]: 686 MG/KG/D IN DIET FOR 39 WK STARTING 1 WK POST CARCINOGEN TREATMENT (STUDY DURATION: 50 WK), Species: RAT, Strain/Sex: F344/FEMALE, Target Tissue: Type of Lesion: URINARY BLADDER: CARCINOMA, Dose [Carcinogen]: 2 G/KG/D IN DIET FOR 10 WK", "result": "105/200 (53%), 49/100 (49%), 8%, p<0.5657"},
      {"measurement": "tumour outcome (control, treated, inhibition, significance)", "setting": "Carcinogen: N-(4-(5-NITRO-2-FURYL)-2-THIAZOLYL)FORMAMIDE, 24554-26-5, Dose [Inhibitor]: 686 MG/KG/D IN DIET FOR 39 WK STARTING 1 WK POST CARCINOGEN TREATMENT (STUDY DURATION: 50 WK), Species: RAT, Strain/Sex: F344/FEMALE, Target Tissue: Type of Lesion: URINARY BLADDER: PAPILLOMA, Dose [Carcinogen]: 2 G/KG/D IN DIET FOR 10 WK", "result": "15/200 (7.5%), 17/100 (17%), -127%, p<0.012"},
      {"measurement": "tumour outcome (control, treated, inhibition, significance)", "setting": "Carcinogen: N-BUTYL-N-(4-HYDROXYBUTYL)NITROSAMINE, 3817-11-6, Dose [Inhibitor]: 0.5 MMOL/KG DIET DAILY FOR 16 WK STARTING 7 D AFTER FINAL CARCINOGEN DOSE (STUDY DURATION: 6 MO), Species: MOUSE, Strain/Sex: B6D2F1/MALE, Target Tissue: Type of Lesion: URINARY BLADDER: CARCINOMA, Dose [Carcinogen]: 5 OR 10 MG 2/WK FOR 9 WK", "result": "36/97 (37%), 22/75 (29%), 22%, not significant"},
      {"measurement": "tumour outcome (control, treated, inhibition, significance)", "setting": "Carcinogen: N-BUTYL-N-(4-HYDROXYBUTYL)NITROSAMINE, 3817-11-6, Dose [Inhibitor]: 1 MMOL/KG DIET DAILY FOR 16 WK STARTING 7 D AFTER FINAL CARCINOGEN DOSE (STUDY DURATION: 6 MO), Species: MOUSE, Strain/Sex: B6D2F1/MALE, Target Tissue: Type of Lesion: URINARY BLADDER: CARCINOMA, Dose [Carcinogen]: 5 OR 10 MG 2/WK FOR 9 WK", "result": "36/97 (37%), 17/77 (22%), 41%, p<0.025"},
      {"measurement": "tumour outcome (control, treated, inhibition, significance)", "setting": "Carcinogen: N-BUTYL-N-(4-HYDROXYBUTYL)NITROSAMINE, 3817-11-6, Dose [Inhibitor]: 1 MMOL/KG DIET DAILY FOR 108 D STARTING ONE WK AFTER THE FINAL CARCINOGEN DOSE (STUDY DURATION: 171 D), Species: MOUSE, Strain/Sex: BDF1/MALE, Target Tissue: Type of Lesion: URINARY BLADDER: TRANSITIONAL CELL CARCINOMA, Dose [Carcinogen]: 5 MG 2/WK FOR 9 WK", "result": "31/55 (56%), 19/55 (35%), 38%, p<0.05"},
      {"measurement": "tumour outcome (control, treated, inhibition, significance)", "setting": "Carcinogen: N-BUTYL-N-(4-HYDROXYBUTYL)NITROSAMINE, 3817-11-6, Dose [Inhibitor]: 1 MMOL/KG DIET DAILY FOR 159 D STARTING ONE WK AFTER THE FINAL CARCINOGEN DOSE (STUDY DURATION: 216 D), Species: MOUSE, Strain/Sex: BDF1/MALE, Target Tissue: Type of Lesion: URINARY BLADDER: TRANSITIONAL CELL CARCINOMA, Dose [Carcinogen]: 7.5 MG 1/WK FOR 8 WK", "result": "29/98 (30%), 14/95 (15%), 50%, p<0.05"},
      {"measurement": "tumour outcome (control, treated, inhibition, significance)", "setting": "Carcinogen: N-BUTYL-N-(4-HYDROXYBUTYL)NITROSAMINE, 3817-11-6, Dose [Inhibitor]: 1.0 MMOL/KG/D IN DIET FOR 108 D STARTING 1 WK POST CARCINOGEN TREATMENT (STUDY DURATION: 171 D), Species: MOUSE, Strain/Sex: DBF1/MALE, Target Tissue: Type of Lesion: URINARY BLADDER: TRANSITIONAL CELL CARCINOMA, Dose [Carcinogen]: 5 MG 2/WK FOR 9 WK", "result": "31/55 (56%), 19/55 (35%), 38%, p<0.05"},
      {"measurement": "tumour outcome (control, treated, inhibition, significance)", "setting": "Carcinogen: N-BUTYL-N-(4-HYDROXYBUTYL)NITROSAMINE, 3817-11-6, Dose [Inhibitor]: 1.0 MMOL/KG/D IN DIET FOR 159 D STARTING 1 WK POST CARCINOGEN TREATMENT (STUDY DURATION: 216 D), Species: MOUSE, Strain/Sex: DBF1/MALE, Target Tissue: Type of Lesion: URINARY BLADDER: TRANSITIONAL CELL CARCINOMA, Dose [Carcinogen]: 7.5 MG 1/WK FOR 8 WK", "result": "29/98 (30%), 14/95 (15%), 50%, p<0.05"},
      {"measurement": "tumour outcome (control, treated, inhibition, significance)", "setting": "Carcinogen: N-BUTYL-N-(4-HYDROXYBUTYL)NITROSAMINE, 3817-11-6, Dose [Inhibitor]: 2 MMOL/KG DIET DAILY FOR 17 WK STARTING 7 D AFTER FINAL CARCINOGEN DOSE (STUDY DURATION: 6 MO), Species: RAT, Strain/Sex: F344/MALE, Target Tissue: Type of Lesion: URINARY BLADDER: TRANSITIONAL CELL CARCINOMA, Dose [Carcinogen]: 200 MG 2/WK FOR 8 WK", "result": "55/60 (92%), 19/30 (63%), 32%, p<0.01"},
      {"measurement": "tumour outcome (control, treated, inhibition, significance)", "setting": "Carcinogen: N-BUTYL-N-(4-HYDROXYBUTYL)NITROSAMINE, 3817-11-6, Dose [Inhibitor]: 2 MMOL/KG DIET DAILY FOR 19 WK STARTING 7 D AFTER FINAL CARCINOGEN DOSE (STUDY DURATION: 6 MO), Species: RAT, Strain/Sex: F344/FEMALE, Target Tissue: Type of Lesion: URINARY BLADDER: TRANSITIONAL CELL CARCINOMA, Dose [Carcinogen]: 150 MG 2/WK FOR 6 WK", "result": "28/80 (35%), 5/40 (12%), 66%, p<0.01"},
      {"measurement": "tumour outcome (control, treated, inhibition, significance)", "setting": "Carcinogen: N-METHYL-N-NITROSOUREA, 684-93-5, Dose [Inhibitor]: 2 MMOL/KG DIET DAILY STARTING 12 D AFTER CARCINOGEN TREATMENT THROUGH ABOUT 8 MO AFTER CARCINOGEN DOSE (STUDY DURATION:, Species: RAT, Strain/Sex: F344/MALE, Target Tissue: Type of Lesion: COLON: ADENOCARCINOMA, Dose [Carcinogen]: 2.5 MG 1/WK FOR 2 WK", "result": "5/39 (13%), 5/30 (17%), -31%, not significant"}
    ]}
  ]
}
